Assay results: US7495027B2, “3-aryl-4-hydroxyfuranone compounds and the human and animal health use thereof” (Wyeth, priority 2003, dated 2009)
Converted amounts (≈) assume the structure as drawn. Where two headings read alike, the source gives them in different places.

Experiments:
[1] = biological target: T1, S. aureus Uridine-diphosphate-N-acetvimuramoyl: L-alanine lipase, MurC (Staphylococcus aureus, UniProt Q2FXJ0); experiment: biochemical
T1 sequence (Q2FXJ0 1-437): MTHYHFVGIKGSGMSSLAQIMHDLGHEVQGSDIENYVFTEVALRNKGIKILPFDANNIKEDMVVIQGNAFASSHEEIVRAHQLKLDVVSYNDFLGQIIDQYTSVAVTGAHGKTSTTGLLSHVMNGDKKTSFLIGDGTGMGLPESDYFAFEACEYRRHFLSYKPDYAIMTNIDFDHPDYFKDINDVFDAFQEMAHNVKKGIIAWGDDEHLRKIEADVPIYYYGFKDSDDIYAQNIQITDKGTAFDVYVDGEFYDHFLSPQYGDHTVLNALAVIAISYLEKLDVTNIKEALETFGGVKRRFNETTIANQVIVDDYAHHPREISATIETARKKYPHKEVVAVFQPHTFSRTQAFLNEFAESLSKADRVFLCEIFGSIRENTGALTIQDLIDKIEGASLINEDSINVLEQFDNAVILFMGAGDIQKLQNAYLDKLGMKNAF
Method in brief: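 MurC assay: enzyme (E. coli 100 μg/mL, S. aureus 70 μg/mL stock) with L-Ala and test compound, pre-incubated 10 min at 23 °C, then UDP-MurNac added, 10 min at 37 °C. Phosphate released detected by malachite green–molybdate at 660 nm; IC50 by linear regression.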

[2] = biological target: T2, S. aureus Uridine-diphosphate-N-acetylmuramoyl-L-alanine: D-glutamate liease, MurD (Staphylococcus aureus, UniProt Q2FZ92); experiment: biochemical; details: (S) S. aureus enzyme
T2 sequence (Q2FZ92 1-449): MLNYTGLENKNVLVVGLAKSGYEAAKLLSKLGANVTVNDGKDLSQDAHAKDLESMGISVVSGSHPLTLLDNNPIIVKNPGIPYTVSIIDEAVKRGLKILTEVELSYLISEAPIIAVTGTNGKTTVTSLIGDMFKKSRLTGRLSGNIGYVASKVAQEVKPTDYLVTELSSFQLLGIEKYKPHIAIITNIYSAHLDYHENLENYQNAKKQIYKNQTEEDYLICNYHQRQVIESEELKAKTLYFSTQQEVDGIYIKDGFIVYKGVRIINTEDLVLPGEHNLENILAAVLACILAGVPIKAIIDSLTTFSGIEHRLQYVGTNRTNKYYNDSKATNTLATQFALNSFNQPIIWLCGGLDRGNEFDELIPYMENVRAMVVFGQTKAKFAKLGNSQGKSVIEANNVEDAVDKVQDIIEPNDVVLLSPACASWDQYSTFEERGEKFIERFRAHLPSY
Method in brief: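 Test solutions, 10 mg/mL stocks in DMSO, were brought to 100 μg/mL with 50 mM Tris/HCl (pH 8.5). Their inhibition of MurD, the enzyme of the fourth cell wall biosynthesis step, was measured.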

staphylococci = experiment: Minimum inhibitory concentration, microdilution broth method, staphylococci; format: cell-based; details: Mueller-Hinton broth, 18-22 hours at 35° C.; for MIC: Staphylococcus aureus
Method in brief: (§1)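 Broth microdilution per NCCLS M7-A5 (2000). Staphylococci and enterococci grown in Mueller-Hinton broth; streptococci in Mueller-Hinton broth with 5% horse blood (LHB). Panel includes recent clinical isolates resistant to methicillin, penicillin and/or vancomycin.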

Streptococci = experiment: Minimum inhibitory concentration, microdilution broth method, streptococci; format: cell-based; details: Mueller-Hinton broth with 5% horse blood, 18-22 hours at 35° C.; for MIC: S. pneumo GC 1894
Method in brief: as §1

[3] = S. aureus GC 1131, read-out: MIC S. aureus GC 1131
[4] = S. aureus GC 4543, read-out: MIC S. aureus GC 4543
[5] = (S) S. aureus enzyme, read-out: MurC IC50 (converted)

Row | SMILES | IC50 [1] [µM] | IC50 [2] [µM] | MIC (staphylococci; [3]) [µg/mL] | MIC (staphylococci; [4]) [µg/mL] | MIC (Streptococci) [µg/mL] | IC50 [1, 5] [µM] | MurC IC50 ([1]; (S) S. aureus enzyme) | MurD IC50 [2] | MIC S. aureus GC 1131 (staphylococci; S. aureus GC 1131) [µg/mL] | MIC S. aureus GC 4543 (staphylococci; S. aureus GC 4543) [µg/mL] | MIC S. pneumo GC 1894 (Streptococci) [µg/mL]
1 | O=C1O/C(=C\c2cccc3ccccc23)C(O)=C1c1ccc(C(F)(F)F)cc1 [Example 71] | 52.3 | 62.8 | 8 (≈ 20.9 µM) | 8 (≈ 20.9 µM) | 0.5 (≈ 1.31 µM) |  |  |  |  |  | 
2 | COc1cccc(C2=C(O)/C(=C/c3cccc4ccccc34)OC2=O)c1 [Example 72] |  | > 72.6 | > 128 | > 128 | 32 (≈ 92.9 µM) | > 72.6 |  |  |  |  | 
3 | COC(=O)c1ccc(C2=C(O)/C(=C/c3cccc4ccccc34)OC2=O)cc1 [Example 74] |  | > 67.1 | 64 (≈ 172 µM) | > 128 | 32 (≈ 85.9 µM) | 48.3 |  |  |  |  | 
4 | CCOC(=O)c1cccc(C2=C(O)C(=Cc3cccc4ccccc34)OC2=O)c1 [Example 75] |  |  |  |  |  |  | 20 µg/mL | >25 (E); >25 (S) μg/mL | 64 (≈ 166 µM) | >128 | 32 (≈ 82.8 µM)
5 | O=Cc1cccc(C2=C(O)/C(=C/c3cccc4ccccc34)OC2=O)c1 [Example 76] |  | > 73 | > 128 | > 128 | 64 (≈ 187 µM) | 52.6 |  |  |  |  | 
6 | O=C1O/C(=C\c2cccc3ccccc23)C(O)=C1c1cccc(C=NO)c1 [Example 77] |  |  |  |  |  |  | 15 µg/mL | >25 (S) μg/mL | >128 | 64 (≈ 179 µM) | 64 (≈ 179 µM)
7 | CN(C)c1ccc(/C=C2\OC(=O)C(c3ccc(Cl)cc3)=C2O)c2ccccc12 [Example 78] |  | > 63.8 | 32 (≈ 81.7 µM) | 32 (≈ 81.7 µM) | 2 (≈ 5.1 µM) | 53.6 |  |  |  |  | 
8 | CN(C)c1ccc(/C=C2\OC(=O)C(c3cc(Cl)cc(Cl)c3)=C2O)c2ccccc12 [Example 79] |  | 32.8 | 2 (≈ 4.69 µM) | 1 (≈ 2.35 µM) | 0.5 (≈ 1.17 µM) | 56.3 |  |  |  |  | 
9 | CN(C)c1ccc(C=C2OC(=O)C(c3cc(Cl)cc(Cl)c3)=C2O)c2ccccc12 [Example 80] |  |  |  |  |  |  | 18 (S) μg/mL | 13 (S) μg/mL | 2 (≈ 4.69 µM) | 1 (≈ 2.35 µM) | 1 (≈ 2.35 µM)
10 | CN(C)c1ccc(/C=C2\OC(=O)C(c3ccc(C(F)(F)F)cc3)=C2O)c2ccccc12 [Example 81] |  | > 58.8 | 8 (≈ 18.8 µM) | 8 (≈ 18.8 µM) | 1 (≈ 2.35 µM) | 37.6 |  |  |  |  | 
11 | O=C1O/C(=C\C2CCCCC2)C(O)=C1c1ccc(-c2ccccc2)cc1 [Example 100] |  | 69.3 | > 128 | > 128 | 64 (≈ 185 µM) | 46.2 |  |  |  |  | 
12 | O=C1O/C(=C\c2cccnc2)C(O)=C1c1ccc(-c2ccccc2)cc1 [Example 101] |  | > 73.2 | > 128 | > 128 | 64 (≈ 187 µM) | 67.4 |  |  |  |  | 
13 | Cc1ccc(/C=C2\OC(=O)C(c3ccc(-c4ccccc4)cc3)=C2O)s1 [Example 104] |  | > 69.4 | 16 (≈ 44.4 µM) | 32 (≈ 88.8 µM) | 0.5 (≈ 1.39 µM) | 52.7 |  |  |  |  | 
14 | O=C1O/C(=C\c2cccc(C(F)(F)F)c2)C(O)=C1c1ccc(-c2ccccc2)c(F)c1 [Example 106] |  | 37.5 | 2 (≈ 4.69 µM) | 2 (≈ 4.69 µM) | 0.25 (≈ 0.586 µM) | 28.1 |  |  |  |  | 
15 | O=C1O/C(=C\c2cccc(-c3cccc(Cl)c3)c2)C(O)=C1c1cccc(Cl)c1 [Example 134] |  | 19.5 | > 128 | 1 (≈ 2.44 µM) | 1 (≈ 2.44 µM) | 51.3 |  |  |  |  | 
16 | O=C1O/C(=C\c2cccc(-c3cc(Cl)cc(Cl)c3)c2)C(O)=C1c1cc(Cl)cc(Cl)c1 [Example 136] |  | 20.9 | 0.25 (≈ 0.523 µM) | 0.25 (≈ 0.523 µM) | 0.25 (≈ 0.523 µM) | > 52.3 |  |  |  |  | 
17 | O=C1O/C(=C\c2ccccc2-c2ccc(Cl)cc2)C(O)=C1c1ccc(Cl)cc1 [Example 137] |  | 44 | 8 (≈ 19.5 µM) | 8 (≈ 19.5 µM) | 2 (≈ 4.89 µM) | 56.2 |  |  |  |  | 
18 | O=C1O/C(=C\c2ccc(Cl)cc2)C(O)=C1c1ccc(-c2ccccc2)c(F)c1 [Example 138] |  | 35.6 | 4 (≈ 10.2 µM) | 4 (≈ 10.2 µM) | 0.5 (≈ 1.27 µM) | 20.4 |  |  |  |  | 
19 | O=C1O/C(=C\c2ccccc2-c2cccc(Cl)c2)C(O)=C1c1cccc(Cl)c1 [Example 140] |  | 48.9 | 1 (≈ 2.44 µM) | 1 (≈ 2.44 µM) | 1 (≈ 2.44 µM) | 19.5 |  |  |  |  | 
20 | O=C1O/C(=C\c2ccccc2-c2ccc(Cl)c(Cl)c2)C(O)=C1c1ccc(Cl)c(Cl)c1 [Example 141] |  | 6.27 | 0.5 (≈ 1.05 µM) | 0.25 (≈ 0.523 µM) | < 0.125 | > 52.3 |  |  |  |  | 
21 | O=C1O/C(=C\c2cc(C(F)(F)F)ccc2Cl)C(O)=C1c1ccc(N2CCOCC2)c(F)c1 [Example 142] |  |  |  |  |  |  | >25 (S) μg/mL | >25 (S) μg/mL | 64 (≈ 136 µM) | >128 | 8 (≈ 17 µM)
22 | O=C1O/C(=C\c2ccc(-c3ccccc3)cc2)C(O)=C1c1csc2ccccc12 [Example 143] |  | 25.2 | 8 (≈ 20.2 µM) | 8 (≈ 20.2 µM) | 1 (≈ 2.52 µM) | 12.6 |  |  |  |  | 
23 | O=C1O/C(=C\c2ccc(-c3ccccc3)cc2)C(O)=C1c1cccs1 [Example 144] |  | 57.7 | 16 (≈ 46.2 µM) | 16 (≈ 46.2 µM) | 2 (≈ 5.77 µM) | 28.9 |  |  |  |  | 
24 | O=C1O/C(=C\c2ccc(C(F)(F)F)cc2)C(O)=C1c1ccc(-c2ccccc2)cc1 [R=H, R1=4-(biphenyl), R2=4-CF3—C6H4] |  | > 61.2 | 8 (≈ 19.6 µM) | 8 (≈ 19.6 µM) | < 0.125 | 29.4 |  |  |  |  | 
25 | O=C1O/C(=C\c2cccc3ccccc23)C(O)=C1c1ccc(-c2ccccc2)cc1 [R=H, R1=4-biphenyl, R2=1-naphthyl] |  | 38.4 | 8 (≈ 20.5 µM) | 4 (≈ 10.2 µM) | 1 (≈ 2.56 µM) | 48.7 |  |  |  |  | 
